Data reported in patent publication US10508120B2, “TYK2 inhibitors and uses thereof” (Nimbus Lakshmi, Inc., priority 2017, dated 2019).
pIC50, pKd: −log10 of the molar value. Read-outs that look alike come from different tables or passages of the source.

Legend:
[1] = target: Tyk2 kinase domain (DH1) (Homo sapiens (Human), UniProt P29597); test: Tyk2 Radioactive Kinase Assay; format: biochemical; details: read-out: Tyk2 JH1% Inhibition @ 10 μM
Summary of the method: (§1)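 Values are single-concentration percent inhibition figures. They were obtained with 10 μM compound in a radioactivity-based kinase assay run separately on each enzyme.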

[2] = target: JAK2 kinase domain (JH1) (Homo sapiens (Human), UniProt O60674); test: JAK2 Radioactive Kinase Assay; format: biochemical; details: read-out: JAK2 JH1% Inhibition @ 10 μM
Chain of JAK2 kinase domain (JH1) (O60674 849-1124): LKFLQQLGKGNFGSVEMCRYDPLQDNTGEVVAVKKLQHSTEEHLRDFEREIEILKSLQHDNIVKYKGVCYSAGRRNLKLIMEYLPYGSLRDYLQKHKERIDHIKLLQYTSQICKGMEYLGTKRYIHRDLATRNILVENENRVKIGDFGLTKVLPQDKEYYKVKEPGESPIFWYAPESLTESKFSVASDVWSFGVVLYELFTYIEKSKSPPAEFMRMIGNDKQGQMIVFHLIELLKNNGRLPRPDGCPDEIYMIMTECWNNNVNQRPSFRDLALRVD
Summary of the method: as §1

[3] = target: human TYK2 (JH2domain-pseudokinase) (Homo sapiens (Human), UniProt P29597); test: TYK2 JH2 Domain Binding Assay (KINOMEscan)
Chain of human TYK2 (JH2domain-pseudokinase) (P29597 556-888): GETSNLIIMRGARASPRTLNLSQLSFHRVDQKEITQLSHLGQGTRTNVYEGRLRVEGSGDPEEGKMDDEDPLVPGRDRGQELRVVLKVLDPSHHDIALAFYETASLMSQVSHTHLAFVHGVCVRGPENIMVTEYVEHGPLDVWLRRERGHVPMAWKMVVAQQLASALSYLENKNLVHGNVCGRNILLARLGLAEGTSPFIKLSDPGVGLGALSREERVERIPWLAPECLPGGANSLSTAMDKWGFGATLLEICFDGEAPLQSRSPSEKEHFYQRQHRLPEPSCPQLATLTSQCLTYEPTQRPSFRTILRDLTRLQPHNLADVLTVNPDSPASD
Summary of the method: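 Competition binding of a DNA-tagged fusion of human TYK2 JH2 pseudokinase (G556–D888) with NFkB DNA-binding domain, from HEK293 extracts (<0.1 nM final), against immobilised ligand beads; 1 h shaking at room temperature, 0.9% DMSO. Bound kinase quantified by qPCR.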

[4] = target: Tyk2/JAK2 (heterodimeric complex) (Homo sapiens (Human), UniProt P29597); test: IL-12 Induced pSTAT4 in Human PBMC; format: cell-based; details: 1.7 ng/mL IL-12
Chain of Tyk2/JAK2 (heterodimeric complex) (P29597 whole entry, other chains not shown): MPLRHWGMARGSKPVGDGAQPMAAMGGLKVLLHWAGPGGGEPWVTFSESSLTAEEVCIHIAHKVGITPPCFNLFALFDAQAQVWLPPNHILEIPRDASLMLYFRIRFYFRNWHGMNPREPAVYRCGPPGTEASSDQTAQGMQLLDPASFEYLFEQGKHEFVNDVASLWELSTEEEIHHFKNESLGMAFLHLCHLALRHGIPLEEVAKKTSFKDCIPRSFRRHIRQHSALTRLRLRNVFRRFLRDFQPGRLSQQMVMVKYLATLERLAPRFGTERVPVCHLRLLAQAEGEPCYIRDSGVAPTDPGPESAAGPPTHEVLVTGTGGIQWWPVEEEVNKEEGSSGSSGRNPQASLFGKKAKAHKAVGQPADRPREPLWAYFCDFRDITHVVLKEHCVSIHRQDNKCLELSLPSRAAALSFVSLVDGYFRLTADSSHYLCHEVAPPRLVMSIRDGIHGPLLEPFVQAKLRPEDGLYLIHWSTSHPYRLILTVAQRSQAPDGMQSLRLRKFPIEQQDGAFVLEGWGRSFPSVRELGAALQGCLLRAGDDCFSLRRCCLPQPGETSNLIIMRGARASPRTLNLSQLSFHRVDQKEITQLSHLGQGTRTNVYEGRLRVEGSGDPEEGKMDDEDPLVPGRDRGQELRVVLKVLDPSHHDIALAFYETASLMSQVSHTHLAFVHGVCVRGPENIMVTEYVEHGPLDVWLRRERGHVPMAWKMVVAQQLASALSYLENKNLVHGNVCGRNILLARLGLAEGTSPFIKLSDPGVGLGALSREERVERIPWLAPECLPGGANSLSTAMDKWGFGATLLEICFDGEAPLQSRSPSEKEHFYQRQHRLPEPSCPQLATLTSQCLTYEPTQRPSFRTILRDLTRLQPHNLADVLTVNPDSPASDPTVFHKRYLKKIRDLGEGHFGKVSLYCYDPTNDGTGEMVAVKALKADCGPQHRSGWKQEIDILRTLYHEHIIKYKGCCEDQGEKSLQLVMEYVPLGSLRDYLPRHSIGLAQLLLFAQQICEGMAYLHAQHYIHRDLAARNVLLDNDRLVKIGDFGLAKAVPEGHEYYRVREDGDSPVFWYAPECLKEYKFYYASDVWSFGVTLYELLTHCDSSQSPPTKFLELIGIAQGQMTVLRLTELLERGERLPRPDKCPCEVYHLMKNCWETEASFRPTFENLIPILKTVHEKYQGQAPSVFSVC
From the text: The IL-12 Induced pSTAT4 assay evaluates the inhibition of IL-12 induced STAT4 phophorylation mediated by Tyk2/JAK2 (heterodimeric complex).

[5] = target: JAK2/JAK2 homdimeric complex (Homo sapiens (Human), UniProt O60674); test: GM-CSF Induced pSTAT5 in Human PBMC; format: cell-based; details: GM-CSF 5 ng/mL for 20 minutes, pSTAT5 by MSD, read-out: PBMC_GMCSF_pSTAT5 IC50
Chain of JAK2/JAK2 homdimeric complex (O60674 whole entry): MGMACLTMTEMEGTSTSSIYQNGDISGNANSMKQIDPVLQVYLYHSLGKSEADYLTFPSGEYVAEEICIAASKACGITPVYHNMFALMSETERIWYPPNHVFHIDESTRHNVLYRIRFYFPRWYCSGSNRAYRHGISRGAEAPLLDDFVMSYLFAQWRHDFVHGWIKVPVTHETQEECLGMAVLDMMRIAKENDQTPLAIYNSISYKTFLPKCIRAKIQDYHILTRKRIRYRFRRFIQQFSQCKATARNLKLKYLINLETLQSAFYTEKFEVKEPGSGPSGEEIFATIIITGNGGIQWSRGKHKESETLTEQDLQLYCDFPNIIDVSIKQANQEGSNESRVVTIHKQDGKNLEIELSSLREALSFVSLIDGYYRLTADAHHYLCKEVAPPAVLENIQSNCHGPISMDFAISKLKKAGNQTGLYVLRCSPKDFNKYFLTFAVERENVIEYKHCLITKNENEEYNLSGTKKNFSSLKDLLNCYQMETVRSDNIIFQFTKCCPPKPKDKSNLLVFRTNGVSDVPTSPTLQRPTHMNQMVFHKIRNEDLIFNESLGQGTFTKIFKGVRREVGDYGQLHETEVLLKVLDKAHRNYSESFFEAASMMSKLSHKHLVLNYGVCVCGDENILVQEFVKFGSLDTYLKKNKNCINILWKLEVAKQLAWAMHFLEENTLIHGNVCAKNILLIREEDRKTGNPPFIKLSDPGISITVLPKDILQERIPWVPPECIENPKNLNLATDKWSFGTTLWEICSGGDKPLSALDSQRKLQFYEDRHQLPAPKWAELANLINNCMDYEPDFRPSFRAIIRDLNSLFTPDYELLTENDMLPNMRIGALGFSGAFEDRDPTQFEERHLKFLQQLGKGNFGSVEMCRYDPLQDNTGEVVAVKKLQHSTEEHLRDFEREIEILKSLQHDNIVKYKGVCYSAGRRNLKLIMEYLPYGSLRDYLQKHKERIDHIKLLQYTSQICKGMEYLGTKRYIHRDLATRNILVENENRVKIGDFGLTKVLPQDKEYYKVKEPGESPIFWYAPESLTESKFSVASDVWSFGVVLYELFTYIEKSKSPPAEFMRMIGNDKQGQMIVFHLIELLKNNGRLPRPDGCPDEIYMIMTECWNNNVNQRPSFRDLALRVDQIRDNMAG
Chain of JAK2/JAK2 homdimeric complex (P32927 17-897 partner): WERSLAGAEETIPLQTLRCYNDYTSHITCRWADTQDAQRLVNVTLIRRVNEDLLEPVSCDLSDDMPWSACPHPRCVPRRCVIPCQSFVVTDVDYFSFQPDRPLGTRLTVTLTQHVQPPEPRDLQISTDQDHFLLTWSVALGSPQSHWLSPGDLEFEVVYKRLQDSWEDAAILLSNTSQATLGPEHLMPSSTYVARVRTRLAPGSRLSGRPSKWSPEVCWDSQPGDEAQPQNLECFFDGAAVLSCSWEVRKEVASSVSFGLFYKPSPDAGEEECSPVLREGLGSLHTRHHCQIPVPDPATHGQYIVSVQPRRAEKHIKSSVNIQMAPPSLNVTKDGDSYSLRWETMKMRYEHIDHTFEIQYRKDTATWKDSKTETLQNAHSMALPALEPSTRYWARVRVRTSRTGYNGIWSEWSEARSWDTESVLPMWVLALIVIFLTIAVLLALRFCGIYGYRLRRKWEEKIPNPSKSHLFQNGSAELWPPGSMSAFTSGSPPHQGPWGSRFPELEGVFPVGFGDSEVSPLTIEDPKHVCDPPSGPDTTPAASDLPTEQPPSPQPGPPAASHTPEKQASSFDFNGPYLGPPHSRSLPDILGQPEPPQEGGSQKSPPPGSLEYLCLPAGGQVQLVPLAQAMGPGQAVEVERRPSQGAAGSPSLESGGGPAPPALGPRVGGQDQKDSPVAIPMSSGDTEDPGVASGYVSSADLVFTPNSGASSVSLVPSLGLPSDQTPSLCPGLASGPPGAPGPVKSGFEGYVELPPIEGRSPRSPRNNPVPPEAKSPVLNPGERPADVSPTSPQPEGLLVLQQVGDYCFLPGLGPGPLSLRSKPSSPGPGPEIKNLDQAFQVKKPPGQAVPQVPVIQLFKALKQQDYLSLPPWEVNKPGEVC

Chain of Tyk2 kinase domain (DH1) (P29597 897-1176): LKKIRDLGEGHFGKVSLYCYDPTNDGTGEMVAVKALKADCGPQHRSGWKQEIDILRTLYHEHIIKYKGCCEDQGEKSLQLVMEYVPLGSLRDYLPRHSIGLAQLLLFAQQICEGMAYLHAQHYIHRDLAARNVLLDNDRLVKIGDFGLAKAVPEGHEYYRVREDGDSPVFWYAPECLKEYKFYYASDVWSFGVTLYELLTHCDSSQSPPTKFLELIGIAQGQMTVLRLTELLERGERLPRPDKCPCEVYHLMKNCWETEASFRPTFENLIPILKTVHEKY

| Structure (SMILES) | inhibition at 10 µM ([1]; compound at 10 μM, ATP 10 μM) [%] | inhibition at 10 µM ([2]; compound at 10 μM, ATP 10 μM) [%] | pKd [3] | pIC50 [4] | pIC50 [5] | inhibition at 10 µM ([1]; 10 μM compound, 10 μM ATP) [%] | inhibition at 10 µM ([2]; 10 μM compound, 10 μM ATP) [%] |
| --- | --- | --- | --- | --- | --- | --- | --- |
| CNc1cc(Nc2cccc(-c3nccs3)c2Cl)nc2c(C(N)=O)cnn12 [I-16] | > 90 | 70 to 90 | 9.00 to 9.70 | > 7.00 | < 5.60 |  |  |
| CNc1cc(Nc2cccnc2OC(C)C)nc2c(C(=O)NC3CCC3)cnn12 [I-145] | < 50 | < 50 | > 9.70 | 6.30 to 7.00 | < 4.30 |  |  |
| CNc1cc(Nc2cccnc2OC)nc2c(C(=O)NC3CCC3)cnn12 [I-4] | < 50 | < 50 | > 9.70 | > 7.00 | < 4.90 |  |  |
| CNc1cc(Nc2cc(F)cn(-c3cnn(C)c3)c2=O)nc2c(C(=O)NC3CC3)cnn12 [I-380] | < 50 | < 50 | > 9.70 | > 7.00 | < 4.90 |  |  |
| CNc1cc(Nc2cccn([C@H]3CC[C@H](OC)CC3)c2=O)nc2c(C(=O)NCC3(CO)CC3)cnn12 [I-545] | < 50 | < 50 | > 9.70 | 6.30 to 7.00 | < 5.60 |  |  |
| CNc1cc(Nc2cccn(-c3ncco3)c2=O)nc2c(C(=O)NC3CC3)cnn12 [I-715] | < 50 | < 50 | > 9.70 | > 7.00 | < 5.60 |  |  |
| CNc1cc(Nc2cccnc2OCCOC)nc2c(C(=O)N[C@H]3C[C@H]3F)cnn12 [I-220] | < 50 | < 50 | > 9.70 | > 7.00 | < 4.90 |  |  |
| CNc1cc(Nc2cccn(C[C@@H]3CCCCO3)c2=O)nc2c(C(=O)NC3CC3)cnn12 [I-413] | < 50 | < 50 | > 9.70 | > 7.00 | < 4.30 |  |  |
| CNc1cc(Nc2cccnc2OC(F)F)nc2c(C(=O)NC3CC3)cnn12 [I-154] | < 50 | 50 to 70 | 9.00 to 9.70 | > 7.00 | < 4.90 |  |  |
| CNc1cc(Nc2cccnc2OC)nc2c(C(=O)NC3CCC3O)cnn12 (stereo not shown) [I-390, N-(2-hydroxycyclobutyl)-5-((2-methoxypyridin-3-yl)amino)-7-(methylamino) pyrazolo[1,5-a]pyrimidine-3-carboxamide] | < 50 | < 50 | > 9.70 | > 7.00 | < 4.30 |  |  |
| CNc1cc(Nc2cc(F)cn(-c3cc(C)n(C)n3)c2=O)nc2c(C(=O)N[C@H]3C[C@H]3F)cnn12 [I-385] | < 50 | < 50 | > 9.70 | > 7.00 | < 5.60 |  |  |
| CNc1cc(-c2c[nH]c3c(C4CCOCC4)cc(Cl)cc23)nc2c(C(N)=O)cnn12 [I-190] | < 50 | < 50 | > 9.70 | > 7.00 | < 4.90 |  |  |
| COc1ncccc1Nc1cc(NCCCN2CCOCC2)n2ncc(C(=O)N[C@@H]3C[C@@H]3F)c2n1 (stereo in doubt) [I-377, N-((1R,2S)-2-fluorocyclopropyl)-5-((2-methoxypyridin-3-yl)amino)-7-((3-morpholinopropyl)amino)pyrazolo[1,5-a]pyrimidine-3-carboxamide] | < 50 | < 50 | 9.00 to 9.70 | 6.30 to 7.00 | < 4.30 |  |  |
| CNc1cc(Nc2cccnc2OC2CC2)nc2c(C(=O)NC3CCC3O)cnn12 (stereo not shown) [I-392, 5-((2-cyclopropoxypyridin-3-yl)amino)-N-(2-hydroxycyclobutyl)-7-(methylamino)pyrazolo[1,5-a]pyrimidine-3-carboxamide] | < 50 | < 50 | > 9.70 | > 7.00 | < 4.30 |  |  |
| CNc1cc(Nc2cc(C)cnc2OCCOC)nc2c(C(=O)NC3CCC3)cnn12 [I-282] | < 50 | < 50 | 9.00 to 9.70 | 6.30 to 7.00 | < 5.60 |  |  |
| [2H]C([2H])([2H])Oc1ncccc1Nc1cc(NC)n2ncc(C(=O)N[C@@H]3CCC[C@@H](O)C3)c2n1 [I-499] | < 50 | < 50 | > 9.70 | > 7.00 | < 4.30 |  |  |

| Structure (SMILES) | inhibition at 10 µM ([1]; compound at 10 μM, ATP 10 μM) [%] | inhibition at 10 µM ([2]; compound at 10 μM, ATP 10 μM) [%] | pKd [3] | pIC50 [4] | pIC50 [5] | inhibition at 10 µM ([1]; 10 μM compound, 10 μM ATP) [%] | inhibition at 10 µM ([2]; 10 μM compound, 10 μM ATP) [%] |
| --- | --- | --- | --- | --- | --- | --- | --- |
| CNc1cc(Nc2cc(C)cnc2OCCOC)nc2c(C(=O)NC3CC3)cnn12 [I-281] | < 50 | < 50 | 9.00 to 9.70 | 6.30 to 7.00 | < 5.60 |  |  |
| [2H]C([2H])([2H])Oc1ncc(C)cc1Nc1cc(NC)n2ncc(C(=O)NC3CC3)c2n1 [I-258] | < 50 | < 50 | > 9.70 | > 7.00 | < 4.30 |  |  |
| CNc1cc(-c2cn(C3CC3)c3ncccc23)nc2c(C(=O)NC3CC3)cnn12 [I-960, N-cyclopropyl-5-(1-cyclopropyl-1H-pyrrolo[2,3-b]pyridin-3-yl)-7-(methylamino)pyrazolo[1,5-a]pyrimidine-3-carboxamide] |  |  | > 9.70 | > 7.00 | < 4.30 | < 50 | < 50 |
| [2H]C([2H])([2H])Oc1ncc(C)cc1Nc1cc(NC)n2ncc(C(=O)N[C@H]3C[C@H]3F)c2n1 [I-259] | < 50 | < 50 | > 9.70 | > 7.00 | < 4.90 |  |  |
| CNc1cc(Nc2cc(Cl)cn([C@@H]3CCCN(C)C3)c2=O)nc2c(C(=O)NC3CC3)cnn12 [I-819] |  |  | > 9.70 | > 7.00 | < 4.30 | < 50 | < 50 |
| CNc1cc(Nc2cccn(C3CCN(CC(F)F)CC3)c2=O)nc2c(C(=O)NC3CCC3)cnn12 [I-192] | < 50 | < 50 | > 9.70 | > 7.00 | < 4.90 |  |  |
| [2H]C([2H])([2H])Nc1cc(Nc2cccnc2OC2CC2)nc2c(C(=O)N[C@@H]3C[C@@H]3F)cnn12 (stereo in doubt) [I-375, 5-((2-cyclopropoxypyridin-3-yl)amino)-N-((1R,2S)-2-fluorocyclopropyl)-7-((methyl-d3)amino)pyrazolo[1,5-a]pyrimidine-3-carboxamide] | < 50 | 50 to 70 | > 9.70 | > 7.00 | < 4.30 |  |  |
| CNc1cc(Nc2cccc(N3CCOCC3)n2)nc2c(C(=O)N[C@H]3C[C@H]3F)cnn12 [I-590] | < 50 | 50 to 70 | > 9.70 | > 7.00 | < 4.90 |  |  |
| CNc1cc(Nc2cccn(-c3ncc(C)s3)c2=O)nc2c(C(=O)N[C@H]3C[C@H]3F)cnn12 [I-262] | < 50 | < 50 | > 9.70 | > 7.00 | < 5.60 |  |  |
| CNc1cc(Nc2cccn(-c3ocnc3C)c2=O)nc2c(C(=O)N[C@@H]3C[C@@H]3F)cnn12 [I-790] | < 50 | < 50 | > 9.70 | > 7.00 | < 4.90 |  |  |
| CNc1cc(Nc2cccn([C@H]3CC[C@@](C)(OC)CC3)c2=O)nc2c(C(=O)NC3CC3)cnn12 [I-359] | < 50 | < 50 | > 9.70 | 6.30 to 7.00 | < 4.90 |  |  |
| CNc1cc(Nc2cc(C)cn(-c3cnn(C)c3)c2=O)nc2c(C(=O)NC3CC3)cnn12 [I-233] | < 50 | < 50 | > 9.70 | > 7.00 | < 4.30 |  |  |
| CNC(=O)c1nscc1Nc1cc(NC)n2ncc(C(=O)N[C@@H]3C[C@@H]3F)c2n1 [I-914] |  |  | > 9.70 | > 7.00 | < 4.30 | < 50 | < 50 |
| CNc1cc(Nc2cccc(-c3cn(C)nc3F)n2)nc2c(C(=O)N[C@@H]3C[C@@H]3F)cnn12 [I-860] |  |  | > 9.70 | > 7.00 | < 4.30 | < 50 | < 50 |
| CNc1cc(Nc2cccnc2OC)nc2c(C(=O)N[C@@H]3CCC[C@H]3O)cnn12 [I-423, N-((1R,2R)-2-hydroxycyclopentyl)-5-((2-methoxypyridin-3-yl)amino)-7-(methylamino)pyrazolo[1,5-a]pyrimidine-3-carboxamide] | < 50 | < 50 | > 9.70 | > 7.00 | < 4.30 |  |  |
| CNc1cc(Nc2cccn(C3CCC4(CC3)OCCO4)c2=O)nc2c(C(=O)N[C@@H]3C[C@@H]3F)cnn12 [I-415, N-((1R,2S)-2-fluorocyclopropyl)-7-(methylamino)-5-((2-oxo-1-(1,4-dioxaspiro 14.51 decan-8-yl)-1,2-dihydropyridin-3-yl)amino)pyrazolo[1,5-a]pyrimidine-3-carboxamide] | < 50 | < 50 | > 9.70 | > 7.00 | < 4.30 |  |  |
